Source: publication PMC9981942, “Pharmacokinetics and tissue distribution of Ramulus Mori (Sangzhi) alkaloids in rats and its effects on liver enzyme activity” (Frontiers in Pharmacology, 2023)

Legend:
Assay in all cases: in vitro
[1] = biological target: T1, CYP1A2 (Homo sapiens, UniProt P05177); conditions: microsomes, pH 7.4
T1 sequence (P05177 1-516): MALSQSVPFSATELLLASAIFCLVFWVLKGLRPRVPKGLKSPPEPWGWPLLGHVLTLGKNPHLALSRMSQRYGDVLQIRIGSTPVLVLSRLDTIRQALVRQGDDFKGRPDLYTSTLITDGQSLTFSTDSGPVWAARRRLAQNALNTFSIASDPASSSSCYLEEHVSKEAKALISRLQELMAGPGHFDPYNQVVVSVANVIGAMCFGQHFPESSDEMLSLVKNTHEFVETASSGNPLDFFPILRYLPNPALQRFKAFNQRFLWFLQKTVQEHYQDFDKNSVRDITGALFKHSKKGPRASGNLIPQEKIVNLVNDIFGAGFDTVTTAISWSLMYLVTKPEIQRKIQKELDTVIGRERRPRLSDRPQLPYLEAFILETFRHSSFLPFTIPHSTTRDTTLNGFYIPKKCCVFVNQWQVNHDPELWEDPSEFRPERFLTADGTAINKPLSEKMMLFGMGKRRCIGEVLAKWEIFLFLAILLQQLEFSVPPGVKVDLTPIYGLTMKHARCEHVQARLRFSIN

[2] = biological target: T2, CYP1A2 (Rattus norvegicus, UniProt P04799); conditions: liver microsomes, pH 7.4, probe phenacetin (50 μM)
T2 sequence (P04799 1-513): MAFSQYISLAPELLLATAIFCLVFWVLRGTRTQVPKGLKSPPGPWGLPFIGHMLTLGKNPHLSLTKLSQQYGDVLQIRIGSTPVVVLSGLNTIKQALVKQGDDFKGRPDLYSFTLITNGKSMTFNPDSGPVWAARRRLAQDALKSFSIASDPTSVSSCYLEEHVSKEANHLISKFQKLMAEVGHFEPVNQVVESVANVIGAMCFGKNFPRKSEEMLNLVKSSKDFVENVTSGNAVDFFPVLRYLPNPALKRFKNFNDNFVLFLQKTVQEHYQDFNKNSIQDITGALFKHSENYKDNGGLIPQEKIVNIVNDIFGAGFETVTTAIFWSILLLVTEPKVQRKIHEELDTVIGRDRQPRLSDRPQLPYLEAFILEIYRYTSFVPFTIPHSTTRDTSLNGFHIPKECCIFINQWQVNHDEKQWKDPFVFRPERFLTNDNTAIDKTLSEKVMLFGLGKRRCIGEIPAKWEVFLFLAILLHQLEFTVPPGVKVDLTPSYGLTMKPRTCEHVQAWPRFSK

[3] = biological target: T3, CYP3A2 (Rattus norvegicus, UniProt P05183); conditions: liver microsomes, pH 7.4, probe midazolam (5 μM)
T3 sequence (P05183 1-504): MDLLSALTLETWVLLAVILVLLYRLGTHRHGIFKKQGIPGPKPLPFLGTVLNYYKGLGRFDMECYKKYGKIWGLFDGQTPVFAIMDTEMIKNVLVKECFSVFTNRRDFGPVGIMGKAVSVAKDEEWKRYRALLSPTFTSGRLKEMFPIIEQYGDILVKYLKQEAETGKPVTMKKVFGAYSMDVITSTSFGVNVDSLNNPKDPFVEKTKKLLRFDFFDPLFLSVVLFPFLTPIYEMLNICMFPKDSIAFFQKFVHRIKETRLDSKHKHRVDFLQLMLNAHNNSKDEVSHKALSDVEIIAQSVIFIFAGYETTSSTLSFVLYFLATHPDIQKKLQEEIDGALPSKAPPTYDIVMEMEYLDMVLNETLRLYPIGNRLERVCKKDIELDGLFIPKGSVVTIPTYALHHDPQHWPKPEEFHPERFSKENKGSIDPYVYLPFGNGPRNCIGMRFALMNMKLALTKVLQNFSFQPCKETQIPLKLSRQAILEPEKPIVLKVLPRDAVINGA

[4] = biological target: T4, CYP2C6 (Rattus norvegicus, UniProt P05178); conditions: liver microsomes, pH 7.4, probe diclofenac sodium (20 μM)
T4 sequence (P05178 1-490): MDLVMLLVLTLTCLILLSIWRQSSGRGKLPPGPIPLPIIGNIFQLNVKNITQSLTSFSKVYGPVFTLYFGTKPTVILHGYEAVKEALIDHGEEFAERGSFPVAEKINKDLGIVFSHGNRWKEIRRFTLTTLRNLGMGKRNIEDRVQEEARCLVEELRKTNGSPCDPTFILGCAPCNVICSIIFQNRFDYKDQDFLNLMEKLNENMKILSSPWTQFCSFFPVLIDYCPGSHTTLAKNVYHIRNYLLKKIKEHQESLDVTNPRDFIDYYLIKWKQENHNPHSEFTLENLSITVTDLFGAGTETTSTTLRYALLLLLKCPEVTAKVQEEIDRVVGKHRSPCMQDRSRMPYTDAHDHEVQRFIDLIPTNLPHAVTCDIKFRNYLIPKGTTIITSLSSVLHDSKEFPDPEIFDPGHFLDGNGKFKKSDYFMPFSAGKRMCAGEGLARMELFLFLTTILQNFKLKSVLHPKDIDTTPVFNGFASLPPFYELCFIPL

In the case of `Cc1nc2c([nH]1)c(=O)n(C)c(=O)n2Cc1ccco1` [furafylline], the inhibition at 30 min, 10 μM [1] is reported as 71.8% and the inhibition at 30 min, 50 μM [2] is reported as 66.3%.
With `CC(=O)N1CCN(c2ccc(OCC3COC(Cn4ccnc4)(c4ccc(Cl)cc4Cl)O3)cc2)CC1` (stereo not shown) [ketoconazole] the inhibition at 5 min, 1 μM [3] was 76.4%.
Work on `Nc1ccc(S(=O)(=O)Nc2ccnn2-c2ccccc2)cc1` [sulfaphenazole] yielded an inhibition at 10 min, 50 μM [4] of 88%.
